The numbers were not newly measured in US9006268B2, “Prolylcarboxypeptidase inhibitors” (Merck Sharp & Dohme Corp., priority 2010, dated 2015), which cites them from elsewhere.

The conditions of series [1]: literature studies of weight loss medications.
In series [2] the test system is obese, leptin deficient mice. As to conditions: systemic administration to obese.
The test system of a further series is rats. The conditions noted are these: intracerebroventricular administration to rats.

For `CC(C)(N)Cc1ccccc1` [phentermine], the “weight loss of body weight for drug compared to placebo” value (“weight loss … compared to placebo” below) in series [1] is on record as 5%-10%.

Turning to `CCN[C@@H](C)Cc1cccc(C(F)(F)F)c1` [dexfenfluramine], in series [1], the “weight loss … compared to placebo” value is given as 5%-10%.

On to `CC(C)CC(N(C)C)C1(c2ccc(Cl)cc2)CCC1` (stereo not drawn) [sibutramine], for which the “weight loss … compared to placebo” value in series [1] is 5%-10%.

As for `CCCCCCCCCCC[C@@H](C[C@@H]1OC(=O)[C@H]1CCCCCC)OC(=O)[C@H](CC(C)C)NC=O` [orlistat], in series [1], the “weight loss … compared to placebo” value is listed as 5%-10%.

Regarding t-butyl carbamate-prolyl prolinal [BPP], the overnight food intake entry (in series [2]; in the series with rats) was “suppression of overnight food intake” each time.
